Measurements taken from US20260183304A1, “COMBINATION OF A TYROSINE KINASE INHIBITOR AND A PRO-INFLAMMATORY AGENT FOR TREATING CANCER” (MDX Management LLC, priority 2022, published 2026).

Key:
LLC lung cancer = assay: LLC tumor treatment and TME analyses; type: in vivo, mice; details: combined with αTLR
Procedure: Three types of solid tumors were tested: 1) MC38 colorectal carcinoma, 2) KPC pancreatic ductal adenocarcinoma, and 3) LLC lung cancer. Tumors were subcutaneously engrafted (s.c.), and treatments started when palpable tumors formed >=200 mm^3. […] In most experiments, TKi and αTLR agonist were together suspended in 500 μl PBS and administered via s.c. at a location distant form tumor. The intermittent treatment scheme was designed to administrate the first cycle, 2× pulse administrations (d1 and d2), an intermittent period (3-7 days), followed by a second cycle treatment.
In vivo tests for anti-tumor efficacy.

macrophages [1] = assay: Macrophage proinflammatory cytokine production with αTLR and cancer cell ligation; type: cell-based, human and murine; details: αTLR-induced, in presence of cancer cell ligation
Procedure: (§1) After incubation for 15 minutes at 37° C., cells were gently washed to remove the majority of SW620, followed by lysis of macrophage using Hank's buffer (pH 7.2) containing 1% Triton and 1 mM PMSF. Protein tyrosine phosphatase (PTP) activity was assayed with […] Hank's buffer at 37° C.
(§2) In vitro assays. Macrophage response to αTLR was assayed in the presence of cancer cell ligation and with or without TK inhibitor. Macrophage SHP-1 activity (PTP activity), macrophage expression of antigen presentation machinery and proinflammatory cytokines were assayed.
(§3) The same in vitro macrophage stimulation in the present of cancer cell ligation experimental system as in Example 1 was used.

macrophages [2] = assay: Macrophage expression of cell surface antigen presentation machinery with αTLR and cancer cell ligation; type: cell-based, human and murine; details: αTLR-induced, in presence of cancer cell ligation
Procedure: as §1, §2, §3

SIRPα and PirB = assay: iR phosphorylation and binding to SHP-1 in bone-marrow-derived macrophages; details: TLR agonist- and cancer ligation-induced, murine bone-marrow-derived macrophages
[3] = tested on: MC38, KPC and LLC tumor models; assay: Syngeneic murine tumor models, TKi alone or with proinflammatory activators; type: in vivo, mice; details: for anti-tumor efficacy, alone/monotherapy: TKi alone
[4] = tested on: macrophage SHP-1 activity; assay: Macrophage SHP-1 (PTP) activity induced by αTLR and cancer cell ligation; type: cell-based, human; details: induced by αTLR (CpG, PolyIC, R848) and SW620 cancer cell ligation
Procedure: . After incubation for 15 minutes at 37° C., cells were gently washed to remove the majority of SW620, followed by lysis of macrophage using Hank's buffer (pH 7.2) containing 1% Triton and 1 mM PMSF. Protein tyrosine phosphatase (PTP) activity was assayed with […] Hank's buffer at 37° C.
as §2, §3
Specifically, an in vitro macrophage functional assay was set up in the presence of cancer cell (SW620) ligation of macrophage iRs. […]. In vivo anti-tumor efficacies with the combination of αTLR were shown in (FIG. 9C).

SIRPα = SIRPα ITIMs phosphorylation and SHP-1 association in macrophages activated by proinflammatory stimuli; type: cell-based; details: macrophage activation by proinflammatory stimuli or cancer therapies
From the text: As shown, proinflammatory stimuli (TLR agonists, proinflammatory cytokines IL-1β, IL-6, IL-12, IL-17, IL-18, TNFα, IFNγ, etc., and cancer therapies) induce SIRPα ITIMs phosphorylation and exclusive association of SHP-1 (not SHP-2). Anti-inflammatory cytokine stimulation also induces SIRPα ITIMs phosphorylation but association with SHP-2.

[5] = tested on: TLR7/8 overexpressing pancreatic cancer cell line; details: R848-stimulation; cited from earlier work
Lyn = Lyn (Homo sapiens, UniProt P07948); details: information vendor provided; cited from earlier work
Lck = Lck (Homo sapiens, UniProt P06239); details: information vendor provided; cited from earlier work
[6] = tested on: malignant melanoma and advanced malignancies; details: Phase I, cited from earlier work
c-Src = c-Src (Homo sapiens, UniProt P12931); details: information vendor provided; cited from earlier work
Sequence of c-Src (P12931 whole entry): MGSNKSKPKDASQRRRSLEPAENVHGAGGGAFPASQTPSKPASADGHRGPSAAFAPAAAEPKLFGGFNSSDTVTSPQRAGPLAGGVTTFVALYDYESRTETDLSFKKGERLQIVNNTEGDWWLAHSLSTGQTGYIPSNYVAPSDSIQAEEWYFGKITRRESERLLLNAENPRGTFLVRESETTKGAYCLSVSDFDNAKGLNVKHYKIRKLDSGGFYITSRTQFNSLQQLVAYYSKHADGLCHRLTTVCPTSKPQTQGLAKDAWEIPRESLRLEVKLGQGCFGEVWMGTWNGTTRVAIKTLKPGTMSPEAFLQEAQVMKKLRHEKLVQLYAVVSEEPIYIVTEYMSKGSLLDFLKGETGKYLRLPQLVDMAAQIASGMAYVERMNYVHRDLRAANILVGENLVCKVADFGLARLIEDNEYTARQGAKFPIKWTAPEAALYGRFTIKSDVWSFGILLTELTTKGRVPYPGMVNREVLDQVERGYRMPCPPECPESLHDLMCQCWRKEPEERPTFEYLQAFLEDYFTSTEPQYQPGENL

Sequence of Lyn (P07948 whole entry, species assumed): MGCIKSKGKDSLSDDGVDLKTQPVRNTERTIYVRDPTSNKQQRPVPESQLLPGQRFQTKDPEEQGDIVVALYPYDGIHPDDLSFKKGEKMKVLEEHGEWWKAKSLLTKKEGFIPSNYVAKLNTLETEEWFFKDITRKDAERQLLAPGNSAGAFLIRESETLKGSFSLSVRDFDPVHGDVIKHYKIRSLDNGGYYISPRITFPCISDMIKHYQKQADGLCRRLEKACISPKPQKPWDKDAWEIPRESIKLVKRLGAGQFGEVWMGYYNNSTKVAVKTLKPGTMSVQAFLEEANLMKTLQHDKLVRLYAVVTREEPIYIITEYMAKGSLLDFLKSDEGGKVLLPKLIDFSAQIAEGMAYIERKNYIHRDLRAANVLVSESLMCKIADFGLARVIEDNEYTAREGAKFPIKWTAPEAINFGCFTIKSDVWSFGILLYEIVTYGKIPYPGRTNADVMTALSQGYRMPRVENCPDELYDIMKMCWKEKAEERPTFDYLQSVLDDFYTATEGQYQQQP
Sequence of Lck (P06239 whole entry, species assumed): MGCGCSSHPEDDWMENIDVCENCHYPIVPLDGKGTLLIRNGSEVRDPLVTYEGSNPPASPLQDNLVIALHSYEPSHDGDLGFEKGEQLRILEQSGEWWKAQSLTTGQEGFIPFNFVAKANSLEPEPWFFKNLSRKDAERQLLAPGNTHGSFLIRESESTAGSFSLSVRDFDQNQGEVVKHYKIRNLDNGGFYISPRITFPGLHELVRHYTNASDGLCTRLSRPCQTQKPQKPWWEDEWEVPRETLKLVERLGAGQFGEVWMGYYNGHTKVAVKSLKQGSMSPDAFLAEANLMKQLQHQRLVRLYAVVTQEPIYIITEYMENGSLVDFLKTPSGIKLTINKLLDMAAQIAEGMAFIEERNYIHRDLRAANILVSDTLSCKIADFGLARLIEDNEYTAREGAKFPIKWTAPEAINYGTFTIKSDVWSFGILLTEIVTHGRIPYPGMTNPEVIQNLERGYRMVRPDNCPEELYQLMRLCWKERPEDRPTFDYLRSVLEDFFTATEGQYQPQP

SMILES	suppression of LLC tumor (LLC lung cancer)	production of proinflammatory cytokines (TNFα, IL-6, CXCL1) (macrophages [1])	expression of cell surface antigen presentation machinery (macrophages [2])	macrophage SHP-1 activity (PTP activity) [4]	SIRPα cytoplasmic ITIMs phosphorylation and SIRPα association with SHP-1 (SIRPα)	other results
CC(C)CCC[C@@H](C)[C@H]1CC[C@H]2[C@@H]3CCC4C[C@H](N)CC[C@]4(C)[C@H]3CC[C@]12C (stereo partly drawn) [3Ac]	not	–	–	–	–	–
Cc1nc(Nc2ncc(C(=O)Nc3c(C)cccc3Cl)s2)cc(N2CCN(CCO)CC2)n1 [Dasatinib, N-(2-chloro-6-methylphenyl)-2-[[6-[4-(2-hydroxyethyl)-1-piperazinyl]-2-methyl-4-pyrimidinyl]amino]-5-thiazole carboxamide monohydrate]	–	marked increases	marked increases	dose-dependently diminished	–	iR phosphorylation and binding to SHP-1 (SIRPα and PirB): depleted; anti-tumor efficacy, alone/monotherapy [3]: not effective; angiogenesis in tumors ([3]; mouse, in vivo): inhibits; TME immune populations (CD8+ T cells, NK cells, macrophages, MDSC) (LLC lung cancer; LLC tumors, 3-day post treatment, various doses): dose-dependent effect of elevating CD8+ T cells and NK cells and reducing macrophages and MDSC
C/C(O)=C(\C#N)C(=O)Nc1cc(Br)ccc1Br [LFMA-13]	–	–	–	–	not	–
Cc1ccc(-c2nn(C(C)(C)C)c3ncnc(N)c23)cc1 [PP1]	–	–	–	–	diminished	–
CC(C)(C)n1nc(-c2ccc(Cl)cc2)c2c(N)ncnc21 [PP2]	–	–	–	–	diminished	–
COc1cc(Nc2ncc(F)c(Nc3ccc4c(n3)NC(=O)C(C)(C)O4)n2)cc(OC)c1OC [R406]	effectively suppressed	Neither UM164 nor R406 enabled	elevated	capability of diminishing	–	intratumoral CD8+ T cell expansion (LLC lung cancer): induced intratumoral CD8+ T cell expansion; intratumoral macrophage antigen presentation (LLC lung cancer): induced intratumoral macrophages for antigen presentation
CCOCc1nc2c(N)nc3ccccc3c2n1CC(C)(C)O [R848]	–	–	–	–	–	cell proliferation [5]: increased; chemosensitivity [5]: reduced
CN1CCN([C@H]2CC[C@H](n3cc(-c4ccc(Oc5ccccc5)cc4)c4c(N)ncnc43)CC2)CC1 [RK-20449, 7-((1R,4R)-4-(4-methylpiperazin-1-yl)cyclohexyl)-5-(4-phenoxyphenyl)-7H-pyrrolo[2,3-d]pyrimidin-4-amine]	–	marked increases	marked increases	dose-dependently diminished	–	iR phosphorylation and binding to SHP-1 (SIRPα and PirB): depleted; IC50 (Lyn): < 3 nM; anti-tumor efficacy, alone/monotherapy [3]: not effective; IC50 (Lck): < 3 nM
O.O.O.O.O.O.O.O.O.O=C([O-])[C@@H]1[O][Sb]2([O-])([O][Sb]34([OH])[O][C@H]([C@H](O)CO)[C@H]([O]3)[C@H](C(=O)[O-])[O]4)[O][C@H]([C@H](O)CO)[C@@H]1[O]2.[Na+].[Na+].[Na+] [SSG, sodium stibogluconate]	–	–	–	–	–	effect against tumor development ([6]; in combination with interferons followed or not by chemotherapy): no effect; patients with most common toxic side-effects [6]: up to 68%
Cc1nc(Nc2ncc(C(=O)Nc3cc(NC(=O)c4cccc(C(F)(F)F)c4)ccc3C)s2)cc(N2CCN(CCO)CC2)n1 [UM-164]	not	Neither UM164 nor R406 enabled	elevated	capability of diminishing	–	IC50 (c-Src): 2.7 nM
